# Test system: Target C
# Experiment: HiBiT protein abundance assay, Target C (K562 HiBiT knock-in cells)
# Assay type: cell-based, human
# Settings: 24 hours
# In short: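 K562 knock-in cells (10000/well, IMDM+1% FBS) treated 24 h at 37 °C with 10-point 3-fold dilutions, top final 10 μM, DMSO ≤0.25%. HiBiT lytic luminescence read; response normalized to unmodified K562 and DMSO-treated controls. IC50 interpolated at 50% abundance by four-parameter logistic fit.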
row,IC50 [nM],SMILES
1,1000 to 10000,"CCNC1CCN(c2ccc(C(=O)Nc3cc(F)c4nc(C)cn4c3)c3nc(OCCOC)ccc23)CC1 [Compound 233, 5-[4-(ethylamino)piperidin-1-yl]-N-{8-fluoro-2-methylimidazo[1,2-a]pyridin-6-yl}-2-(2-methoxyethoxy)quinoline-8-carboxamide]"
2,100 to 1000,"Cc1cnc2c(C(=O)Nc3cc(F)c4nc(C)cn4c3)ccc(N3C[C@@H](C)N[C@@H](C)C3)c2n1 [Compound 217, 8-((3R,5S)-3,5-dimethylpiperazin-1-yl)-N-{8-fluoro-2-methylimidazo[1,2-a]pyridin-6-yl}-2-methylquinoxaline-5-carboxamide]"
3,1000 to 10000,"COCCOc1ccc2c(N3C[C@@H](C)N[C@@H](C)C3)ccc(C(=O)Nc3cc(F)c4nc(C)cn4c3)c2n1 [Compound 232, 5-[(3R,5S)-3,5-dimethylpiperazin-1-yl]-N-{8-fluoro-2-methylimidazo[1,2-a]pyridin-6-yl}-2-(2-methoxyethoxy)quinoline-8-carboxamide]"
4,100 to 1000,"CCNC1CCN(c2ccc(C(=O)Nc3cc(F)c4nc(C)cn4c3)c3nc(C)ccc23)CC1 [Compound 228, 5-[4-(ethylamino)piperidin-1-yl]-N-{8-fluoro-2-methylimidazo[1,2-a]pyridin-6-yl}-2-methylquinoline-8-carboxamide]"
5,> 10000,"Cc1cn2cc(NCc3ccc(N4CCNCC4)c4ccnnc34)cc(F)c2n1 [Compound 230, 8-fluoro-2-methyl-N-{[5-(piperazin-1-yl)cinnolin-8-yl]methyl}imidazo[1,2-a]pyridin-6-amine]"
6,100 to 1000,"CNC1CCN(c2ccc(C(=O)Nc3cc(F)c4nc(C)cn4c3)c3ncc(OC)nc23)C1 (stereo in doubt) [Compound 227, (R)—N-(8-fluoro-2-methylimidazo[1,2-a]pyridin-6-yl)-2-methoxy-8-(3-(methylamino)pyrrolidin-1-yl)quinoxaline-5-carboxamide 2,2,2-trifluoroacetate]"
7,1000 to 10000,Cc1cn2cc(NC(=O)c3ccc(N4CCC(NC(C)(C)C)C4)c4ccnnc34)cc(F)c2n1 (stereo not drawn) [Compound 109]
8,> 10000,"COCCOc1ccc2c(N3CCC(N(C)C)CC3)ccc(C(=O)Nc3cc(F)c4nc(C)cn4c3)c2n1 [Compound 229, 5-[4-(dimethylamino)piperidin-1-yl]-N-{8-fluoro-2-methylimidazo[1,2-a]pyridin-6-yl}-2-(2-methoxyethoxy)quinoline-8-carboxamide]"
9,1000 to 10000,"CNC1CCN(c2ccc(C(=O)Nc3cc(F)c4nc(C)cn4c3)c3nnccc23)C1 (stereo not drawn) [Compound 231, N-{8-fluoro-2-methylimidazo[1,2-a]pyridin-6-yl}-5-[3-(methylamino)pyrrolidin-1-yl] cinnoline-8-carboxamide]"
